Results: publication PMC4874602 (ACS Infectious Diseases, 2016)
Where “and” joins values, the source holds several entries; their conditions need not be identical. Identical values can stand only once. Like-named read-outs stand apart in the source and are kept apart here.

Assays:
in vivo [1] = conditions: BALB/c and C3HeB/FeJ, mouse, 25 mg/kg
[2] = BALB/c, single 25 mg/kg oral dose of BDQ
in vivo [3] = conditions: BALB/c, mouse, po, 25 mg/kg; for Kp / Cmax / half-life / Tmax: single 25 mg/kg oral dose of BDQ; for half-life: t1/2, BALB/c
in vivo [4] = conditions: C3HeB/FeJ, mouse, po, 25 mg/kg; for Kp / Cmax / half-life / Tmax: single 25 mg/kg oral dose of BDQ; for half-life: t1/2, C3HeB/FeJ
M. tuberculosis Erdman [5] = format: in vivo, Mycobacterium tuberculosis; conditions: BALB/c, 4 weeks of treatment
[6] = C3HeB/FeJ; for AUC168h: single 25 mg/kg oral dose of BDQ
M. tuberculosis Erdman [7] = format: in vivo, Mycobacterium tuberculosis
[8] = AUCUL/AUCplasma, uninvolved lung
[9] = C3HeB/FeJ less-responsive subpopulation, BDQ 10 mg/kg

## COc1nc2ccc(Br)cc2cc1[C@@H](c1ccccc1)[C@@](O)(CCN(C)C)c1cccc2ccccc12 [BDQ, bedaquiline]
In vivo [1]
  Tmax: 3 h
[2]; lesion (type III), 25 mg/kg
  AUC168h: 949 µg·h/g and 949.6 µg·h/g
[2]; uninvolved lung
  AUC168h: 956.6 µg·h/g
[2]; whole lung
  AUC168h: 694.0 µg·h/g
In vivo [3]
  AUC(0-t): 33700 ng·h/mL
In vivo [3]; AUCLes/AUCplasma, lesion (type III)
  Kp: 28.2
In vivo [3]; [8]
  Kp: 28.4
In vivo [3]; AUCWL/AUCplasma, whole lung
  Kp: 20.6
In vivo [3]; lesion (cellular non-necrotizing, type III)
  Cmax: 31700 ng/g
In vivo [3]; uninvolved lung
  Cmax: 36000 ng/g
  half-life: 67.4 h
In vivo [3]; whole lung
  Cmax: 22100 ng/g
  half-life: 74.5 h
  Tmax: 8 h
In vivo [3]; lesion (type III)
  half-life: 85.5 h
  Tmax: 8 h
In vivo [4]
  AUC(0-t): 35900 ng·h/mL
In vivo [4]; AUCLes/AUCplasma, lesion (type I)
  Kp: 10.8
In vivo [4]; [8]
  Kp: 18.2
In vivo [4]; AUCWL/AUCplasma, whole lung
  Kp: 20.6
In vivo [4]; lesion (caseous necrotic granuloma, type I)
  Cmax: 10100 ng/g
In vivo [4]; plasma
  Cmax: 2720 ng/mL
  Tmax: 4 h
In vivo [4]; uninvolved lung
  Cmax: 23300 ng/g
  half-life: 84.1 h
  Tmax: 8 h
In vivo [4]; whole lung
  Cmax: 22900 ng/g
  half-life: 130 h
  Tmax: 8 h
In vivo [4]; lesion (type I)
  half-life: 104 h
  Tmax: 8 h
M. tuberculosis Erdman [5]; BDQ 10 mg/kg oral gavage
  log10 CFU reduction in lungs: 3.1 log10 CFU
M. tuberculosis Erdman [5]; BDQ 25 mg/kg oral gavage
  log10 CFU reduction in lungs: 4.1 log10 CFU
[6]; 8 h following a single 25 mg/kg dose of BDQ, preliminary
  concentration in dissected caseum of type I granulomas (LC/MS/MS): 974.5 ng/g
[6]; lesion (type I)
  AUC168h: 387.1 µg·h/g
[6]; uninvolved lung
  AUC168h: 653.9 µg·h/g
[6]; whole lung
  AUC168h: 739.42 µg·h/g
M. tuberculosis Erdman [7]; [9]
  activity against the less-responsive subpopulation: only bacteriostatic
  rate of decrease in log10 CFU in the lungs between 4 and 8 weeks of treatment: 0.0129 log10 CFU/week
M. tuberculosis Erdman [7]; C3HeB/FeJ responsive subpopulation, BDQ 10 mg/kg
  rate of decrease in log10 CFU in the lungs between 4 and 8 weeks of treatment: 0.4392 log10 CFU/week
M. tuberculosis Erdman [7]; C3HeB/FeJ responsive subpopulation, BDQ 25 mg/kg
  rate of decrease in log10 CFU in the lungs between 4 and 8 weeks of treatment: 0.3606 log10 CFU/week
